Results from PMC4669708 (Cell Death & Disease, 2015).

Assays:
HT-29 MLKL S358D cells = assay: Cell death driven by doxycycline-induced MLKL S358D expression; type: cell-based, human; conditions: 2 μg/ml doxycycline overnight; 10 μM NSA, 0.5 μM ponatinib
Method: (§1) Cells were seeded in 12-, 24- or 96-well plates at proper cell density. For necroptosis or apoptosis assays, cells were incubated with the indicated compound combinations at concentrations stated for 14–24 h. Smac mimetic and z-VAD-FMK were added 30–60 min before treatment with TNF-α, FasL or TRAIL. Cell viability was determined using CellTiter Glo Luminescent Cell Viability Assay (Promega, Fitchburg, WI, USA) according to the manufacturer's instructions. Luminescence was recorded with a SpectraMax M5Multimode plate reader (Molecular Devices, Sunnyvale, CA, USA). For flow cytometry-based determination of viability, cells were harvested, collected by centrifugation, washed once and resuspended in staining buffer (1 × PBS, 10% FBS). Cells were incubated with 0.5 μg/ml PI for 10 min at room temperature (RT) in the dark. Flow cytometric analyses were performed on an LSR Fortessa (BD Biosciences) and analyzed with FlowJo software version 7.6.3 (Tree Star Inc, Ashland, OR, USA). Cell size was evaluated by forward scatter. PI-negative normal-sized cells were considered living and data were normalized to values of untreated controls. For detection of apoptosis, cells were resuspended in Annexin V Binding Buffer (BioLegend, San Diego, CA, USA) and stained with 0.5 μg/ml PI and Alexa Fluor 647 Annexin V (BioLegend) according to manufacturer's instructions.

[1] = tested on: FADD-deficient Jurkat cells; assay: Flow cytometry viability (propidium iodide / forward scatter), TNFα-induced necroptosis; type: cell-based; conditions: human, 6 h
Method: as §1

3T3-SA cells = assay: TNF-α/z-VAD (TZ)-induced necroptosis; type: cell-based, murine; conditions: Supplementary Figures 3a, b
Method: as §1

Jurkat E6.1 cells = assay: FasL-induced apoptosis, cell viability; type: cell-based; conditions: 100 ng/ml human FasL, 24 h; 0.5 μM ponatinib, 5 μM pazopanib
Method: as §1

3T3-SA or L929 cells = assay: Drug toxicity dose-response, Supplementary Figure 3; type: cell-based, murine; conditions: Mus musculus, read-out: IC50 (printed in Supplementary Figure 3)
Method: as §1

endogenous RIPK3 = molecular target: T1, endogenous RIPK3 (Homo sapiens, UniProt Q9Y572); assay: Cellular thermal shift assay (CETSA); type: cell-based; conditions: FADD-deficient Jurkat cells, 0.5 μM, 3 h
T1 construct: endogenous in cells; host or cells: FADD-deficient Jurkat I2.1
T1 sequence (Q9Y572 whole entry): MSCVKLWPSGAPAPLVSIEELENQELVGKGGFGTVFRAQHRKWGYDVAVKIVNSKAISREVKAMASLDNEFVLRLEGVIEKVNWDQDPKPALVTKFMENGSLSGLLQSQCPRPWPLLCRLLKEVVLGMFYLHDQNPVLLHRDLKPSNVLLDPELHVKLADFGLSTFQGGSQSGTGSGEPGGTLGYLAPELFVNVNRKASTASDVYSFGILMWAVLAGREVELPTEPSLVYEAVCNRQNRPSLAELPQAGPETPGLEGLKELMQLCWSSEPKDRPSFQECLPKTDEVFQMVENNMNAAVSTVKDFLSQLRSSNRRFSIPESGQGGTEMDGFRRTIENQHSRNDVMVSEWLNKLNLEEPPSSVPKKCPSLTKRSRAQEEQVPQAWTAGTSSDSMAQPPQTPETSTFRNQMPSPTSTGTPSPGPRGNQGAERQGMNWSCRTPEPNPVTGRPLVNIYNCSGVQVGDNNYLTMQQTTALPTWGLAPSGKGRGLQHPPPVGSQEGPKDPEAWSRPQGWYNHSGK
Method: Drug target engagement in cells, causing stabilization of the respective protein, was analyzed essentially as described previously.[55] […] After treatment, cells were collected by centrifugation and resuspended in 1x PBS. The cell suspension was aliquoted into PCR tubes and heated for 3 min at 42, 46, 50, 54, 58 or 62 °C. Subsequently, cells were lysed by three consecutive freeze–thaw cycles using liquid nitrogen. The soluble fraction was separated from precipitated proteins by centrifugation at 13000 r.p.m. and 4 °C for 20 min. The supernatant, containing the soluble proteins, was transferred to a fresh tube and analyzed by immunoblotting.

L929 cells = assay: TNF-α/z-VAD-FMK-induced necroptosis; type: cell-based, murine; conditions: Supplementary Figures 3c, d
Method: as §1

Cc1ccc(C(=O)Nc2ccc(CN3CCN(C)CC3)c(C(F)(F)F)c2)cc1C#Cc1cnc2cccnn12 [ponatinib, Ponatinib]
block of cell death driven by MLKL S358D expression (HT-29 MLKL S358D cells): did not prevent cell death | viable cells [1]: 79,3% | block of necroptotic cell death (3T3-SA cells): capable of blocking necroptotic cell death with comparable potency | inhibition of apoptotic cell death triggered by FasL (Jurkat E6.1 cells): none of the drugs inhibited apoptotic cell death | IC50 (3T3-SA or L929 cells): 1100 nM | RIPK3 thermostability (target engagement) (endogenous RIPK3): led to a shift in the RIPK3 thermostability curve | protection from necroptosis (L929 cells): the effect was partial and confined to a small dosage window around 100 nM
